Laboratory results taken from PubChem BioAssay AID1918957 (Molecular Pharmacology Branch, DTP, NCI, 2023).

System: NCI-H1876 complex spheroid viability
Assay: Anticancer human tumor NCI-H1876 cell line growth inhibition [LSD1];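 also: spheroids exposed to compounds for one week before readout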;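 as to viability, T/C: 100% = DMSO vehicle-treated spheroids so lower means fewer viable cells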
Conditions: for IC50: curve of first compound; for viability, T/C: stronger effect = lower value
Procedure, shortened: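 Drug combinations with the LSD1 inhibitor iadademstat tested on tumor cells co-cultured as spheroids with endothelial cells and mesenchymal stem cells. Concentrations descended in half-log increments from clinical Cmax or 10 microM.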

Q: Which results are given for `Cn1ncnc1C1c2n[nH]c(=O)c3cc(F)cc(c23)NC1c1ccc(F)cc1` (stereo not given) + NC1CC1c1ccc(-c2cccc(O)c2)cc1?
A: IC50 (second compound 0.1 µM): > 100 nM; IC50 (second compound 0.316 µM): > 100 nM; IC50 (second compound 1 µM): > 100 nM; IC50 (second compound 3.16 µM): > 100 nM; IC50 (second compound 10 µM): > 100 nM; viability, T/C (second compound 0.1 µM, first compound 0.000316 µM): 112%; viability, T/C (second compound 0.1 µM, first compound 0.001 µM): 113%; viability, T/C (second compound 0.1 µM, first compound 0.00316 µM): 111%; viability, T/C (second compound 0.1 µM, first compound 0.01 µM): 97.9%; viability, T/C (second compound 0.1 µM, first compound 0.0316 µM): 92%; viability, T/C (second compound 0.1 µM, first compound 0.1 µM): 90%; viability, T/C (second compound 0.316 µM, first compound 0.000316 µM): 108%; viability, T/C (second compound 0.316 µM, first compound 0.001 µM): 106%; viability, T/C (second compound 0.316 µM, first compound 0.00316 µM): 110%; viability, T/C (second compound 0.316 µM, first compound 0.01 µM): 97.4%; viability, T/C (second compound 0.316 µM, first compound 0.0316 µM): 107%; viability, T/C (second compound 0.316 µM, first compound 0.1 µM): 90.1%; viability, T/C (second compound 1 µM, first compound 0.000316 µM): 108%; viability, T/C (second compound 1 µM, first compound 0.001 µM): 115%; viability, T/C (second compound 1 µM, first compound 0.00316 µM): 108%; viability, T/C (second compound 1 µM, first compound 0.01 µM): 106%; viability, T/C (second compound 1 µM, first compound 0.0316 µM): 96.2%; viability, T/C (second compound 1 µM, first compound 0.1 µM): 87.8%; viability, T/C (second compound 3.16 µM, first compound 0.000316 µM): 109%; viability, T/C (second compound 3.16 µM, first compound 0.001 µM): 110%; viability, T/C (second compound 3.16 µM, first compound 0.00316 µM): 102%; viability, T/C (second compound 3.16 µM, first compound 0.01 µM): 104%; viability, T/C (second compound 3.16 µM, first compound 0.0316 µM): 90.2%; viability, T/C (second compound 3.16 µM, first compound 0.1 µM): 92.9%; viability, T/C (second compound 10 µM, first compound 0.000316 µM): 107%; viability, T/C (second compound 10 µM, first compound 0.001 µM): 102%; viability, T/C (second compound 10 µM, first compound 0.00316 µM): 95.5%; viability, T/C (second compound 10 µM, first compound 0.01 µM): 96.7%; viability, T/C (second compound 10 µM, first compound 0.0316 µM): 89.7%; viability, T/C (second compound 10 µM, first compound 0.1 µM): 78.8%

Q: Which results are given for `NS(=O)(=O)OCC1CC(n2ccc3c(NC4CCc5ccccc54)ncnc32)CC1O` (stereo not given) + NC1CC1c1ccc(-c2cccc(O)c2)cc1?
A: IC50 (second compound 0.1 µM): 84.6 nM; IC50 (second compound 0.316 µM): 94.3 nM; IC50 (second compound 1 µM): 78.2 nM; IC50 (second compound 3.16 µM): 130 nM; IC50 (second compound 10 µM): 187 nM; viability, T/C (second compound 0.1 µM, first compound 0.00949 µM): 93.3%; viability, T/C (second compound 0.1 µM, first compound 0.03 µM): 58%; viability, T/C (second compound 0.1 µM, first compound 0.0949 µM): 52%; viability, T/C (second compound 0.1 µM, first compound 0.3 µM): 45.5%; viability, T/C (second compound 0.1 µM, first compound 0.949 µM): 44.5%; viability, T/C (second compound 0.1 µM, first compound 3 µM): 37.4%; viability, T/C (second compound 0.316 µM, first compound 0.00949 µM): 82.4%; viability, T/C (second compound 0.316 µM, first compound 0.03 µM): 59.1%; viability, T/C (second compound 0.316 µM, first compound 0.0949 µM): 50.6%; viability, T/C (second compound 0.316 µM, first compound 0.3 µM): 45.8%; viability, T/C (second compound 0.316 µM, first compound 0.949 µM): 42.8%; viability, T/C (second compound 0.316 µM, first compound 3 µM): 38.4%; viability, T/C (second compound 1 µM, first compound 0.00949 µM): 86.6%; viability, T/C (second compound 1 µM, first compound 0.03 µM): 56.8%; viability, T/C (second compound 1 µM, first compound 0.0949 µM): 49.4%; viability, T/C (second compound 1 µM, first compound 0.3 µM): 47.2%; viability, T/C (second compound 1 µM, first compound 0.949 µM): 41.3%; viability, T/C (second compound 1 µM, first compound 3 µM): 38.3%; viability, T/C (second compound 3.16 µM, first compound 0.00949 µM): 91.1%; viability, T/C (second compound 3.16 µM, first compound 0.03 µM): 63%; viability, T/C (second compound 3.16 µM, first compound 0.0949 µM): 53.6%; viability, T/C (second compound 3.16 µM, first compound 0.3 µM): 46.7%; viability, T/C (second compound 3.16 µM, first compound 0.949 µM): 39.9%; viability, T/C (second compound 3.16 µM, first compound 3 µM): 36.2%; viability, T/C (second compound 10 µM, first compound 0.00949 µM): 87.2%; viability, T/C (second compound 10 µM, first compound 0.03 µM): 73.6%; viability, T/C (second compound 10 µM, first compound 0.0949 µM): 55.5%; viability, T/C (second compound 10 µM, first compound 0.3 µM): 45%; viability, T/C (second compound 10 µM, first compound 0.949 µM): 38.6%; viability, T/C (second compound 10 µM, first compound 3 µM): 30.9%
